Test results from patent EP0907658B1 (PRINCE OF WALES MEDICAL RESEARCH INSTITUTE LIMITED, priority 1996, dated 2004).
Each block holds one substance with its values, some of them ahead of it. Ends that are not written are not given here.

Legend:
[1] = target: Y2-like receptors; experiment: Inhibition of the increase in pulse interval evoked by vagus nerve stimulation in anaesthetised rats (prejunctional activity); format: in vivo; conditions: for EC50 ΔP1%: change in pulse interval, anaesthetised rats, intravenous peptide; for in vivo activity at Y2 receptors (potency as inhibitor of the effect of vagal stimulation on heart rate): compared with Ac[L28,L31]NPY24-36
Protocol: (§1) Experiments were carried out on adult rats (Wistar) of both sexes (250-350g), anaesthetised with sodium pentobarbitone (Nembutal, Boehringer-Ingleheim; 60 mg/kg, i.p.). The trachea was cannulated and the animal artificially ventilated. The femoral vein was cannulated for administration of peptides and further doses of anaesthetic. The left femoral artery was cannulated to record arterial pressure. Both vagus nerves were cut. […] The frequency was chosen to increase pulse interval by approximately 100 ms, a submaximal effect on this variable. The electrocardiogram was measured using needle electrodes and monitored on one channel of an osciloscope. Pulse interval (the period between successive beats of the heart) was recorded beat-by-beat by triggering from ECG. Pulse interval and arterial pressure were recorded on the pen recorder.
Dose-response curves were constructed from group data for all rats. Because of the long time-course of action of the peptides tested, not all peptides were given to each rat. Usually however, each rat received neuropeptide Y and two other peptides.
(§2) As an indication of prejunctional activity two parameters were measured; the maximum percent inhibition of the increase in pulse interval evoked by stimulation of the vagus nerve following injection of peptide and the time to half recovery of this effect (T50). For pressor action, an indicator of postjunctional activity, two parameters were also measured; the peak pressor response following injection of peptide and the duration of the increase in blood pressure. These indices give a reliable measure of the actions of a peptide at pre-and postjunctional sites, and have been used previously in this laboratory for this purpose; Potter et al., 1989; Potter et al., 1991). Results were analysed using a one-way ANOVA.

[2] = tested on: neuropeptide Y Y1 receptor type; conditions: SK-N-MC cells; cited from earlier work
[3] = tested on: neuropeptide Y Y2 receptor subtype; conditions: SMS-KAN cells; cited from earlier work
[4] = tested on: human Y2 receptor; experiment: [125I]NPY receptor binding assay on SMS-MSN cells; conditions: for IC50: SMS-MSN cells, 30 pM [125I]NPY
Protocol: SK-N-MC cells expressing the human Y1 receptor and SMS-MSN cells expressing the human Y2 receptor were obtained from the ATCC. They were cultured in 1:1 DMEM:Ham's F12 medium (ICN) containing 10% fetal calf serum, 0.1% non-essential amino acids, 0.2 mM glutamine, and 0.056% sodium bicarbonate. Confluent cells were harvested in scraping and pellets were stored at -80°C. On the day of use cells were thawed, washed once in binding buffer salts, passed several times through a 22 ga. needle, and the protein content was assayed using bicinchoninic acid (BCA kit, Pierce).
Just before use, plates were filtered and washed twice with 50 mM Tris-HCI pH 7.4 / 0.1% BSA. […] Binding was terminated by filtration. […] Specific binding was analysed by nonlinear regression using a single-site fitting function (Graphpad Prism). Nonspecific binding was defined by binding in the presence of 1 µM competitor.

[5] = tested on: human neuropeptide Y Y1 receptor; conditions: Y1 receptor expressed in fibroblast cells; cited from earlier work
[6] = tested on: Y1 receptors; experiment: Pressor response (blood pressure increase) after peptide injection in anaesthetised rats (postjunctional activity); format: in vivo
Protocol: as §1, with “The” for “The frequency was chosen to increase pulse interval by approximately 100 ms, a submaximal effect on this variable. The”
Dose-response curves were constructed from group data for all rats. Because of the long time-course of action of the peptides tested, not all peptides were given to each rat.
as §2, with “These indices give a reliable measure of the actions of a peptide at pre-and postjunctional sites, and have been used previously in this laboratory for this purpose; Potter et al., 1989; Potter et al., 1991).” left out

[7] = tested on: neuropeptide Y Y1 receptor; conditions: studies in vivo; cited from earlier work
[8] = tested on: neuropeptide Y Y2 (prejunctional); conditions: studies in vivo; cited from earlier work
[9] = tested on: transmitter release from renal nerves; experiment: Kidney blood flow: increase of renal vascular resistance elicited by renal nerve stimulation; format: in vivo, dogs; conditions: 40 nmol dose; Figure 1
Protocol: Experiments were carried out in six, adult, mongrel dogs of both sexes weighing between 18 and 26 kg. The dogs were anaesthetised with a bolus injection of sodium pentobarbitone (36 mg/kg intravenous; Nembutal, Boehringer Ingelheim) and then maintained on an infusion (2-3 mg/kg/hr). The animal was artificially ventilated, maintained at constant temperature and blood pressure and heart rate were monitored continuously.
The left kidney was exposed retroperitoneally and renal arterial blood flow was monitored continuously (Pernow & Lundberg, 1989a), using a transonic flow probe (Transonic System Inc., N.Y.). Postganglionic nerves to the kidney were isolated, cut and placed over bipolar, platinum electrodes for stimulation (1-10 Hz, 5-10 V, 1-5 msec).
The renal nerve was stimulated over a range of frequencies (1-10 Hz) for 30 secs and a frequency-response curve constructed. The responses were measured at the peak change in flow. […] Responses were reported as change in vascular resistance.

Substance: Ac-LRAYLNLLTRQRY-NH2 [Ac[A26,L28,L31]NPY24-36]
- EC50 ΔP1% [1]: 1.26 nmol

Substance: Ac-ARHYLNLLTRQRY-NH2 [Ac[A24,L28,L31]NPY24-36]
- EC50 ΔP1% [1]: 0.46 nmol

Substance: Ac-ARAALNAATRQRY-NH2 [Ac[A24,26,27,30,31,L28]NPY24-36]
- EC50 ΔP1% [1]: 0.56 nmol
- in vivo activity at Y2 receptors (potency as inhibitor of the effect of vagal stimulation on heart rate) [1]: enhanced in vivo activity at Y2 receptors

Substance: Ac[A26,A27,L28,L31]NPY24-36 (Ac-LRAALNLLTRQRY; ends and bridges not checked; UniProt P01303 52-64, looked up, variant H26A Y27A I28L I31L) [Ac[A26,27,L28,31]NPY24-36]
- in vivo activity at Y2 receptors (potency as inhibitor of the effect of vagal stimulation on heart rate) [1]: enhanced in vivo activity at Y2 receptors

Substance: Ac-LAHYRNLLTRQRY-NH2 [Ac[A25,R28,L31]NPY24-36]
- EC50 ΔP1% [1]: 1.95 nmol

Substance: Ac-LRHYLNLLTRQRY-NH2 [Ac[L28,L31]NPY24-36]
- affinity for the neuropeptide Y Y1 receptor type [2]: no affinity
- affinity for the neuropeptide Y Y2 receptor subtype [3]: significant affinity
- IC50 [4]: 3.9 nM
- increase in cytosolic calcium [5]: did hot stimulate
- EC50 ΔP1% [1]: 3.16 nmol

Substance: Ac-LAHYLNLLTRQRY-NH2 [Ac[A25,L28,L31]NPY24-36]
- IC50 [4]: 2 nM
- EC50 ΔP1% [1]: 1.58 nmol

Substance: AcNPY 24-36
- Increase in BP (rel to NPY) ([6]; anaesthetised rats, †: No response to 10 nmole dose): Of

Substance: Neuropeptide Y [NPY]
- change of blood pressure ([6]; in vivo in rats, at the doses tested): raised blood pressure significantly in a dose-dependent manner

Substance: (Leu^17, Glu^19, Ala^21, Ala^22, Glu^23, Leu^28, Leu^31) neuropeptide Y-(13-36) [ANA neuropeptide Y-(13-36)]
- pressor activity [7]: retained significant pressor activity
- prejunctional activity [8]: prejunctional activity equivalent to the whole neuropeptide Y molecule

Substance: Ac-LRHALNLLTRQRY-NH2 [Ac[A27,L28,L31]NPY24-36]
- EC50 ΔP1% [1]: 0.52 nmol

Substance: Ac-ARHALNLLTRQRY-NH2 [Ac[A24,A27,L28,L31]NPY24-36, Ac[Ala24, Ala27, Leu28, Leu31]NPY(24-36)]
- inhibition of the increase of renal vascular resistance elicited by renal nerve stimulation [9]: almost completely inhibited the effect of nerve stimulation
- affinity for NPY Y2 receptors ([4]; in words): high affinity for NPY Y2 receptors
- direct effect on the circulation ([6]; 40 nmol dose, Table 1): exerted no direct effect on the circulation
- EC50 ΔP1% [1]: 0.89 nmol
- in vivo activity at Y2 receptors (potency as inhibitor of the effect of vagal stimulation on heart rate) [1]: enhanced in vivo activity at Y2 receptors

Now from value to substance:

- EC50 ΔP1% [1]: 1.26 nmol
Substance: Ac[L28,I30]NPY24-36 (Ac-LRHYLNIITRQRY; ends and bridges not checked; UniProt P01303 52-64, looked up, variant I28L L30I)

- EC50 ΔP1% [1]: 6.46 nmol
Substance: Ac-LRHYLNLLARQRY-NH2 [Ac[L28,L31,A32]NPY24-36]

- EC50 ΔP1% [1]: 2.75 nmol
Substance: Ac-LRHYANLLTRQRY-NH2 [Ac[A28,L31]NPY24-36]

- EC50 ΔP1% [1]: 0.39 nmol
Substance: Ac-LRHYLNALTRQRY-NH2 [Ac[L28,A30,L31]NPY24-36]

- EC50 ΔP1% [1]: 0.78 nmol
Substance: Ac-LRHYLNLATRQRY-NH2 [Ac[L28,A31]NPY24-36]

- EC50 ΔP1% [1]: 1.48 nmol
Substance: Ac-LRHYLALLTRQRY-NH2 [Ac[L28,A29,L31]NPY24-36]
